Reference: ChEMBL document CHEMBL1145592, “Pleuromutilin derivatives having a purine ring. Part 1: new compounds with promising antibacterial activity against resistant Gram-positive pathogens” (2008)
In brackets after ≈: the same amount, converted by molar mass.

Experiments:
Assay type in all cases: functional
[1] = system: Staphylococcus aureus; assay: Antibacterial activity against methicillin-susceptible Staphylococcus aureus Smith
[2] = system: Staphylococcus aureus; assay: Antibacterial activity against methicillin-resistant Staphylococcus aureus KMP9
[3] = system: Enterococcus faecium; assay: Antibacterial activity against vancomycin-resistant Enterococcus faecium KU1778
[4] = system: Streptococcus pneumoniae; assay: Antibacterial activity against penicillin-susceptible Streptococcus pneumoniae ATCC 49619
[5] = system: Streptococcus pneumoniae; assay: Antibacterial activity against penicillin-resistant Streptococcus pneumoniae KT2524
[6] = system: Streptococcus pyogenes; assay: Antibacterial activity against Streptococcus pyogenes ATCC 12344
[7] = system: Moraxella catarrhalis; assay: Antibacterial activity against Moraxella catarrhalis K1209
[8] = system: Haemophilus influenzae; assay: Antibacterial activity against Haemophilus influenzae TH13
[9] = system: Staphylococcus aureus; assay: Antibacterial activity against methicillin-susceptible Staphylococcus aureus Smith infected iv dosed mouse 1 hr after inoculation

Compound	MIC [1]	MIC [2]	MIC [3]	MIC [4]	MIC [5]	MIC [6]	MIC [7]	MIC [8]	ED50 [9]
C=C[C@]1(C)C[C@@H](OC(=O)CSC2CCN(C(=O)CCn3cnc4c(N5CCC(N)C5)ncnc43)CC2)[C@]2(C)[C@H](C)CC[C@]3(CCC(=O)[C@@H]32)[C@@H](C)[C@@H]1O (stereo partly specified)	0.063 µg/mL (≈ 0.0856 µM)	0.125 µg/mL (≈ 0.17 µM)	0.032 µg/mL (≈ 0.0435 µM)	0.016 µg/mL (≈ 0.0217 µM)	0.032 µg/mL (≈ 0.0435 µM)	0.016 µg/mL (≈ 0.0217 µM)	0.032 µg/mL (≈ 0.0435 µM)	1 µg/mL (≈ 1.36 µM)	–
C=C[C@]1(C)C[C@@H](OC(=O)CSC2CCN(C(=O)CCn3cnc4c(N5CCC(N(C)C)CC5)nc(N)nc43)CC2)[C@]2(C)[C@H](C)CC[C@]3(CCC(=O)[C@@H]32)[C@@H](C)[C@@H]1O	0.25 µg/mL (≈ 0.315 µM)	0.25 µg/mL (≈ 0.315 µM)	0.125 µg/mL (≈ 0.158 µM)	0.063 µg/mL (≈ 0.0794 µM)	0.063 µg/mL (≈ 0.0794 µM)	0.032 µg/mL (≈ 0.0403 µM)	0.063 µg/mL (≈ 0.0794 µM)	2 µg/mL (≈ 2.52 µM)	1.72 mg/kg
C=C[C@]1(C)C[C@@H](OC(=O)CSC2CCN(C(=O)CCn3cnc4c(N5CCC(NC)C5)nc(N)nc43)CC2)[C@]2(C)[C@H](C)CC[C@]3(CCC(=O)[C@@H]32)[C@@H](C)[C@@H]1O (stereo partly specified)	0.25 µg/mL (≈ 0.327 µM)	1 µg/mL (≈ 1.31 µM)	0.25 µg/mL (≈ 0.327 µM)	0.063 µg/mL (≈ 0.0823 µM)	0.063 µg/mL (≈ 0.0823 µM)	0.032 µg/mL (≈ 0.0418 µM)	0.125 µg/mL (≈ 0.163 µM)	1 µg/mL (≈ 1.31 µM)	1.72 mg/kg
C=C[C@]1(C)C[C@@H](OC(=O)CSC2CCN(C(=O)CCn3cnc4c(N5CCC(NC)C5)ncnc43)CC2)[C@]2(C)[C@H](C)CC[C@]3(CCC(=O)[C@@H]32)[C@@H](C)[C@@H]1O (stereo partly specified)	0.063 µg/mL (≈ 0.084 µM)	0.25 µg/mL (≈ 0.333 µM)	0.032 µg/mL (≈ 0.0427 µM)	0.016 µg/mL (≈ 0.0213 µM)	0.032 µg/mL (≈ 0.0427 µM)	0.016 µg/mL (≈ 0.0213 µM)	0.063 µg/mL (≈ 0.084 µM)	2 µg/mL (≈ 2.67 µM)	1.61 mg/kg
C=C[C@]1(C)C[C@@H](OC(=O)CSC2CCN(C(=O)CCn3cnc4c(N5CCC(NC)CC5)nc(N)nc43)CC2)[C@]2(C)[C@H](C)CC[C@]3(CCC(=O)[C@@H]32)[C@@H](C)[C@@H]1O	0.5 µg/mL (≈ 0.642 µM)	2 µg/mL (≈ 2.57 µM)	0.5 µg/mL (≈ 0.642 µM)	0.125 µg/mL (≈ 0.16 µM)	0.25 µg/mL (≈ 0.321 µM)	0.063 µg/mL (≈ 0.0809 µM)	0.25 µg/mL (≈ 0.321 µM)	2 µg/mL (≈ 2.57 µM)	1.41 mg/kg
C=C[C@]1(C)C[C@@H](OC(=O)CSC2CCN(C(=O)CCn3cnc4c(N5CCC(CNC)C5)nc(N)nc43)CC2)[C@]2(C)[C@H](C)CC[C@]3(CCC(=O)[C@@H]32)[C@@H](C)[C@@H]1O (stereo partly specified)	0.5 µg/mL (≈ 0.642 µM)	4 µg/mL (≈ 5.13 µM)	0.5 µg/mL (≈ 0.642 µM)	0.125 µg/mL (≈ 0.16 µM)	0.25 µg/mL (≈ 0.321 µM)	0.032 µg/mL (≈ 0.0411 µM)	0.25 µg/mL (≈ 0.321 µM)	4 µg/mL (≈ 5.13 µM)	1.01 mg/kg
C=C[C@]1(C)C[C@@H](OC(=O)CSC2CCN(C(=O)CCn3cnc4c(N5CC(N)C5)nc(N)nc43)CC2)[C@]2(C)[C@H](C)CC[C@]3(CCC(=O)[C@@H]32)[C@@H](C)[C@@H]1O	0.5 µg/mL (≈ 0.678 µM)	1 µg/mL (≈ 1.36 µM)	0.25 µg/mL (≈ 0.339 µM)	0.063 µg/mL (≈ 0.0855 µM)	0.125 µg/mL (≈ 0.17 µM)	0.063 µg/mL (≈ 0.0855 µM)	0.25 µg/mL (≈ 0.339 µM)	1 µg/mL (≈ 1.36 µM)	3.04 mg/kg
C=C[C@]1(C)C[C@@H](OC(=O)CSC2CCN(C(=O)CCn3cnc4c(N5CCC(CN)C5)ncnc43)CC2)[C@]2(C)[C@H](C)CC[C@]3(CCC(=O)[C@@H]32)[C@@H](C)[C@@H]1O (stereo partly specified)	0.125 µg/mL (≈ 0.167 µM)	0.5 µg/mL (≈ 0.667 µM)	0.125 µg/mL (≈ 0.167 µM)	0.016 µg/mL (≈ 0.0213 µM)	0.032 µg/mL (≈ 0.0427 µM)	0.008 µg/mL (≈ 0.0107 µM)	0.063 µg/mL (≈ 0.084 µM)	1 µg/mL (≈ 1.33 µM)	0.59 mg/kg
